Test results taken from paper PMC11620503 (Antimicrobial Agents and Chemotherapy, 2024).
≈ marks a conversion by molar mass, not a printed value. Read-outs that look alike come from different tables or passages of the source.

What was measured:
[1] = system: Carbapenemase-producing A. baumannii (4); test: MIC and MBC testing; assay type: cell-based, Acinetobacter baumannii; settings: 4 carbapenemase-producing A. baumannii; fixed BLI concentration (μg/mL) in label; text: MBC/MIC ratios
[2] = system: 207 Enterobacterales including carbapenem-resistant isolates; test: MIC, broth microdilution; assay type: cell-based
[3] = system: MEM-nonsusceptible Enterobacterales with metallo-carbapenemases; test: MIC, broth microdilution; assay type: cell-based; settings: MEM-nonsusceptible Enterobacterales with metallo-carbapenemases (55), cefiderocol 54 isolates
[4] = system: MEM-nonsusceptible Enterobacterales with serine-carbapenemases; test: MIC, broth microdilution; assay type: cell-based; settings: MEM-nonsusceptible Enterobacterales with serine-carbapenemases (58)
[5] = system: MEM-, imipenem/relebactam-, and ceftolozane/tazobactam-nonsusceptible P. aeruginosa; test: MIC, broth microdilution; assay type: cell-based, Pseudomonas aeruginosa; settings: for CLSI MIC interpretation I (intermediate) / CLSI MIC interpretation R (resistant) / CLSI MIC interpretation S (susceptible): CLSI breakpoints, marked c: breakpoints for β-lactam alone; for MIC50 / MIC90: Pseudomonas aeruginosa, fixed concentration (μg/mL) in label; for MIC50: read-out: MIC50; for MIC90: read-out: MIC90
[6] = system: Serine-carbapenemase-producing Enterobacterales (6); test: MIC and MBC testing; assay type: cell-based; settings: 6 serine-carbapenemase-producing Enterobacterales; fixed BLI concentration (μg/mL) in label
96 P. aeruginosa = test: MIC, broth microdilution; assay type: cell-based, Pseudomonas aeruginosa; settings: Pseudomonas aeruginosa (96)
[7] = system: MBL-producing isolates (Enterobacterales); test: MIC, broth microdilution; assay type: cell-based; settings: Enterobacterales with metallo-carbapenemases (74), cefiderocol 73 isolates
[8] = system: serine-carbapenemase-producing isolates (Enterobacterales); test: MIC, broth microdilution; assay type: cell-based; settings: Enterobacterales with serine-carbapenemases (80)
[9] = system: Metallo-carbapenemase-producing Enterobacterales (11); test: MIC and MBC testing; assay type: cell-based; settings: 11 metallo-carbapenemase-producing Enterobacterales; fixed BLI concentration (μg/mL) in label
[10] = system: 55 isolates of A. baumannii; test: MIC, broth microdilution; assay type: cell-based, Acinetobacter baumannii; settings: Acinetobacter baumannii (55)
[11] = system: MEM-nonsusceptible Enterobacterales; test: MIC, broth microdilution; assay type: cell-based; settings: MEM-nonsusceptible Enterobacterales (127), cefiderocol 126 isolates
VIM-2 = VIM-2 (Escherichia coli, UniProt Q5U7L7); test: Ki app determination (Waley's method); settings: read-out: Ki app; VIM-2; means from three independent studies
OXA-66 = OXA-66 (Acinetobacter baumannii, UniProt Q58XD2); test: Ki app determination (Waley's method); settings: read-out: Ki app; OXA-66; means from three independent studies
CTX-M-15 = CTX-M-15 (Escherichia coli, UniProt Q9EXV5); test: Ki app determination (Waley's method); settings: read-out: Ki app; CTX-M-15; means from three independent studies
SHV-12 = SHV-12 (Klebsiella pneumoniae, UniProt P0A3M1, L31Q); test: Ki app determination (Waley's method); settings: read-out: Ki app; SHV-12; means from three independent studies
KPC-38 = KPC-38 (Klebsiella pneumoniae, UniProt Q9F663); test: Ki app determination (Waley's method); settings: read-out: Ki app, means from three independent studies
KPC-2 = KPC-2 (Klebsiella pneumoniae, UniProt Q9F663); test: Ki app determination (Waley's method); settings: read-out: Ki app; KPC-2; means from three independent studies
OXA-72 = OXA-72 (Acinetobacter baumannii, UniProt Q5XQU0); test: Ki app determination (Waley's method); settings: read-out: Ki app; OXA-72; means from three independent studies
SHV-5 = SHV-5 (Klebsiella pneumoniae, UniProt P0A3M1); test: Ki app determination (Waley's method); settings: read-out: Ki app; SHV-5; means from three independent studies
PDC-11 = PDC-11 (Pseudomonas aeruginosa, UniProt P24735, form not given, species not given); test: Ki app determination (Waley's method); settings: read-out: Ki app, means from three independent studies
OXA-23 = OXA-23 (Acinetobacter baumannii, UniProt Q9L4P2); test: Ki app determination (Waley's method); settings: read-out: Ki app; OXA-23; means from three independent studies
VIM-1 = VIM-1 (Pseudomonas aeruginosa, UniProt A0A0F7KYQ8); test: Ki app determination (Waley's method); settings: read-out: Ki app; VIM-1; means from three independent studies
KPC-3 = KPC-3 (Klebsiella pneumoniae, UniProt Q9F663, H272Y); test: Ki app determination (Waley's method); settings: read-out: Ki app; KPC-3; means from three independent studies
IMP-6 = IMP-6 (Serratia marcescens, UniProt P52699, S214G); test: Ki app determination (Waley's method); settings: read-out: Ki app; IMP-6; means from three independent studies
ACT-17 = ACT-17 (Enterobacter cloacae complex, UniProt Q8KP20); test: Ki app determination (Waley's method); settings: read-out: Ki app, means from three independent studies
IMP-1 = IMP-1 (Serratia marcescens, UniProt P52699); test: Ki app determination (Waley's method); settings: read-out: Ki app; IMP-1; means from three independent studies
OXA-48 = OXA-48 (Klebsiella pneumoniae, UniProt Q6XEC0); test: Ki app determination (Waley's method); settings: read-out: Ki app; OXA-48; means from three independent studies
OXA-24 = OXA-24 (Acinetobacter baumannii, UniProt Q8RLA6); test: Ki app determination (Waley's method); settings: read-out: Ki app; OXA-24; means from three independent studies
SHV-2 = SHV-2 (Klebsiella pneumoniae, UniProt P0A9Z8); test: Ki app determination (Waley's method); settings: read-out: Ki app; SHV-2; means from three independent studies
CTX-M-14 = CTX-M-14 (Escherichia coli, UniProt Q9L5C7); test: Ki app determination (Waley's method); settings: read-out: Ki app; CTX-M-14; means from three independent studies
CTX-M-27 = CTX-M-27 (Escherichia coli, UniProt Q840M4); test: Ki app determination (Waley's method); settings: read-out: Ki app; CTX-M-27; means from three independent studies
OXA-65 = OXA-65 (Acinetobacter baumannii, UniProt Q58XD3); test: Ki app determination (Waley's method); settings: read-out: Ki app; OXA-65; means from three independent studies
[12] = All Enterobacterales (207), cefiderocol 205 isolates, CLSI breakpoints, marked c: breakpoints for β-lactam alone, tigecycline: FDA breakpoints
[13] = CLSI breakpoints, marked c: breakpoints for β-lactam alone, tigecycline: FDA breakpoints
[14] = fixed concentration (μg/mL) in label, read-out: MIC50
[15] = fixed concentration (μg/mL) in label, read-out: MIC90
[16] = Ceftolozane/tazobactam-nonsusceptible Pseudomonas aeruginosa (45)
[17] = Imipenem/relebactam-nonsusceptible Pseudomonas aeruginosa (43)
[18] = MEM-nonsusceptible Pseudomonas aeruginosa (76)
[19] = CLSI breakpoints, marked c: breakpoints for β-lactam alone

## CC(C)(O/N=C(\C(=O)N[C@@H]1C(=O)N2C(C(=O)[O-])=C(C[n+]3ccccc3)CS[C@H]12)c1csc(N)n1)C(=O)O [CAZ, ceftazidime]
[1]
  MBC/MIC ratio range: 1–2
[2]; [12]
  CLSI MIC interpretation I (intermediate): 2.4%
  CLSI MIC interpretation R (resistant): 82.1%
  CLSI MIC interpretation S (susceptible): 15.5%
[2]; read-out: MIC50
  MIC50: > 32 µg/mL
[2]; read-out: MIC90
  MIC90: > 32 µg/mL
[3]; [13]
  CLSI MIC interpretation I (intermediate): 0%
  CLSI MIC interpretation R (resistant): 98.2%
  CLSI MIC interpretation S (susceptible): 1.8%
[3]; [14]
  MIC50: > 32 µg/mL
[3]; [15]
  MIC90: > 32 µg/mL
[4]; [13]
  CLSI MIC interpretation I (intermediate): 1.7%
  CLSI MIC interpretation R (resistant): 82.8%
  CLSI MIC interpretation S (susceptible): 15.5%
[4]; [14]
  MIC50: > 32 µg/mL
[4]; [15]
  MIC90: > 32 µg/mL
[5]; [16]
  CLSI MIC interpretation I (intermediate): 4.4%
  CLSI MIC interpretation R (resistant): 93.3%
  CLSI MIC interpretation S (susceptible): 2.2%
  MIC50: > 32 µg/mL
  MIC90: > 32 µg/mL
[5]; [17]
  CLSI MIC interpretation I (intermediate): 7%
  CLSI MIC interpretation R (resistant): 83.7%
  CLSI MIC interpretation S (susceptible): 9.3%
  MIC50: > 32 µg/mL
  MIC90: > 32 µg/mL
[5]; [18]
  CLSI MIC interpretation I (intermediate): 6.6%
  CLSI MIC interpretation R (resistant): 68.4%
  CLSI MIC interpretation S (susceptible): 25%
  MIC50: 32 µg/mL (≈ 58.5 µM)
  MIC90: > 32 µg/mL
[6]
  MIC/MBC range: 1–256
96 P. aeruginosa; [19]
  CLSI MIC interpretation I (intermediate): 6.3%
  CLSI MIC interpretation R (resistant): 56.3%
  CLSI MIC interpretation S (susceptible): 37.5%
96 P. aeruginosa; [14]
  MIC50: 32 µg/mL (≈ 58.5 µM)
96 P. aeruginosa; [15]
  MIC90: > 32 µg/mL
[7]; [13]
  CLSI MIC interpretation I (intermediate): 0%
  CLSI MIC interpretation R (resistant): 98.6%
  CLSI MIC interpretation S (susceptible): 1.4%
[7]; [14]
  MIC50: > 32 µg/mL
[7]; [15]
  MIC90: > 32 µg/mL
[8]; [13]
  CLSI MIC interpretation I (intermediate): 2.5%
  CLSI MIC interpretation R (resistant): 73.8%
  CLSI MIC interpretation S (susceptible): 23.8%
[8]; [14]
  MIC50: > 32 µg/mL
[8]; [15]
  MIC90: > 32 µg/mL
[9]
  MIC/MBC range: ≥1
[10]; [19]
  CLSI MIC interpretation I (intermediate): 1.8%
  CLSI MIC interpretation R (resistant): 94.5%
  CLSI MIC interpretation S (susceptible): 3.6%
[10]; [14]
  MIC50: > 32 µg/mL
[10]; [15]
  MIC90: > 32 µg/mL
[11]; [13]
  CLSI MIC interpretation I (intermediate): 3.1%
  CLSI MIC interpretation R (resistant): 87.4%
  CLSI MIC interpretation S (susceptible): 9.4%
[11]; [14]
  MIC50: > 32 µg/mL
[11]; [15]
  MIC90: > 32 µg/mL

## NCCN[C@H]1CC[C@H](CC(=O)N[C@H]2Cc3cccc(C(=O)O)c3OB2O)CC1 [Tanibobactam, taniborbactam]
VIM-2
  Ki: 322 ± 50 nM
OXA-66
  Ki: 61700 nM
CTX-M-15
  Ki: 0.0245 ± 0.0103 nM
SHV-12
  Ki: 4.73 ± 0.182 nM
KPC-38
  Ki: 0.617 ± 0.0841 nM
KPC-2
  Ki: 1.1 ± 0.229 nM
OXA-72
  Ki: 25200 nM
SHV-5
  Ki: 5.9 ± 1.8 nM
PDC-11
  Ki: 34.6 ± 2.2 nM
OXA-23
  Ki: > 100000 nM
VIM-1
  Ki: 271 ± 46.7 nM
KPC-3
  Ki: 0.947 ± 0.259 nM
IMP-6
  Ki: > 100000 nM
ACT-17
  Ki: 12.6 ± 1.55 nM
IMP-1
  Ki: > 100000 nM
OXA-48
  Ki: 204 ± 31 nM
OXA-24
  Ki: 2080 nM
SHV-2
  Ki: 20 ± 2.39 nM
CTX-M-14
  Ki: 0.0607 ± 0.0257 nM
CTX-M-27
  Ki: 0.0344 ± 0.013 nM
OXA-65
  Ki: > 100000 nM
